The values below come from patent US10710992B2, “Substituted pyridinones as bromodomain inhibitors” (Zenith Epigenetics Ltd., priority 2014, dated 2020).

The test system of test [1] is c-myc in Human AML MV4-11 cells. In words: Inhibition of cMYC expression in cancer cell lines (mRNA, real-time PCR). Type of test: cell-based. The following applies: Homo sapiens, 3 h, cMYC mRNA normalized to Cyclophilin. How it is done: MV4-11 cells (CRL-9591) were plated at a density of 2.5×10^4 cells per well in 96 well U-bottom plates and treated with increasing concentrations of test compound or DMSO (0.1%) in IMDM media containing 10% FBS and penicillin/streptomycin, and incubated for 3 h at 37° C. Triplicate wells were used for each concentration. Cells were pelleted by centrifugation and harvested using the mRNA Catcher PLUS kit according to manufacturer's instructions. The eluted mRNA isolated was then used in a one-step quantitative real-time PCR reaction, using components of the RNA UltraSense™ One-Step Kit (Life Technologies) together with Applied Biosystems TaqMan® primer-probes for cMYC and Cyclophilin. Real-time PCR plates were run on a ViiA™ 7 real time PCR machine (Applied Biosystems), data was analyzed, normalizing the Ct values for cMYC to an internal control, prior to determining the fold expression of each sample, relative to the control.
On the technique in general: Quantitative PCR measures a nucleic acid by following its amplification.

For another test, the system named is hIL-6 mRNA. In words: Inhibition of hIL-6 mRNA transcription in LPS-stimulated U937 cells. It counts as cell-based. The conditions noted are these: Homo sapiens, U-937; PMA-differentiated U937 cells, 1 h pretreatment, LPS 1 ug/mL, 3 h; read-out: IL-6 activity. The method, then:
Human leukemic monocyte lymphoma U937 cells (CRL-1593.2) were plated at a density of 3.2×10^4 cells per well in a 96-well plate in 100 μL RPMI-1640 containing 10% FBS and penicillin/streptomycin, and differentiated into macrophages for 3 days in 60 ng/mL PMA ([…]) at 37° C. in 5% CO2 prior to the addition of compound. The cells were pretreated for 1 h with increasing concentrations of test compound in 0.1% DMSO prior to stimulation with 1 ug/mL lipopolysaccharide from Escherichia coli. Triplicate wells were used for each concentration. The cells were incubated at 37° C., 5% CO2 for 3 h before the cells were harvested. At time of harvest, media was removed and cells were rinsed in 200 μL PBS. Cells were harvested using the mRNA Catcher PLUS kit according to manufacturer's instructions. The eluted mRNA was then used in a one-step quantitative real-time PCR reaction using components of the RNA UltraSense™ One-Step Kit (Life Technologies) together with Applied Biosystems TaqMan® primer-probes for hIL-6 and Cyclophilin. Real-time PCR plates were run on a ViiA™ 7 real time PCR machine (Applied Biosystems), data was analyzed, normalizing the Ct values for hIL-6 to an internal control, prior to determining the fold expression of each sample, relative to the control.

Another test deals with Human AML MV-4-11 cells. In words: Inhibition of cell proliferation in cancer cell lines (CellTiter Aqueous One). It counts as cell-based. The conditions noted are these: Homo sapiens; MV4-11 cells, 72 h. How it is done: MV4-11 cells (CRL-9591) were plated at a density of 5×10^4 cells per well in 96 well flat bottom plates and treated with increasing concentrations of test compound or DMSO (0.1%) in IMDM media containing 10% FBS and penicillin/streptomycin. Triplicate wells were used for each concentration and a well containing only media was used as a control. Plates were incubated at 37° C., 5% CO2 for 72 h before adding 20 μL of the CellTiter Aqueous One Solution (Promega) to each well and incubated at 37° C., 5% CO2 for an additional 3-4 h. The absorbance was read at 490 nm in a spectrophotometer and the percentage of cell titer relative to DMSO-treated cells was calculated after correcting for background by subtracting the blank well's signal. IC50 values were calculated using the GraphPad Prism software.

Test [2] concerns the target T1, Brd4 bromodomain 1 (BRD4(1)) (Homo sapiens, UniProt O60885).
T1 construct: made in house; host or cells: E. coli BL21(DE3)
In words: Inhibition of tetra-acetylated histone H4 binding to BET bromodomain (HTRF/FRET). The following applies: His-tagged bromodomain 200 nM, tetra-acetylated histone H4 peptide, 2 h room temperature. How it is done: Proteins were cloned and overexpressed with a N-terminal 6× His tag, then purified by nickel affinity followed by size exclusion chromatography. Briefly, E. coli BL21(DE3) cells were transformed with a recombinant expression vector encoding N-terminally Nickel affinity tagged bromodomains from Brd2, Brd3, Brd4. Cell cultures were incubated at 37° C. with shaking to the appropriate density and induced overnight with IPTG. The supernatant of lysed cells was loaded onto Ni-IDA column for purification. Eluted protein was pooled, concentrated and further purified by size exclusion chromatography. Fractions representing monomeric protein were pooled, concentrated, aliquoted, and frozen at −80° C. for use in subsequent experiments.
Binding of tetra-acetylated histone H4 and BET bromodomains was confirmed by a Homogenous Time Resolved Fluorescence Resonance Energy Transfer (HTRF®) method. N-terminally His-tagged bromodomains (200 nM) and biotinylated tetra-acetylated historic H4 peptide (25-50 nM, Millipore) were incubated in the presence of Europium Cryptate-labeled streptavidin (Cisbio Cat. #610SAKLB) and XL665-labeled monoclonal anti-His antibody (Cisbio Cat. #61HISXLB) in a white 96 well microtiter plate (Greiner). For inhibition assays, serially diluted test compound was added to these reactions in a 0.2% final concentration of DMSO. Duplicate wells were used for each concentration tested. Final buffer concentrations were 30 mM HEPES pH 7.4, 30 mM NaCl, 0.3 mM CHAPS, 20 mM phosphate pH 7.0, 320 mM KF, 0.08% BSA. After a 2 h incubation at room temperature, fluorescence was measured at 665 and 620 nm with a SynergyH4 plate reader (Biotek). The binding inhibitory activity was shown by a decrease in 665 nm relative to […] fluorescence. IC50 values were determined from a dose response curve.
(In general: Time-resolved FRET reads energy transfer from a long-lived donor to a nearby acceptor.)

Take `Cc1noc(C)c1-c1c[nH]c(=O)c(NCc2nc3ccccc3s2)c1` [Example 40, 3-((benzo[d]thiazol-2-ylmethyl)amino)-5-(3,5-dimethylisoxazol-4-yl)pyridin-2(1H)-one]: the IC50 was in the range of 0.3 to 3 µM in test [1], 0.3 to 3 µM in the test on hIL-6 mRNA, 3 to 30 µM with Human AML MV-4-11 cells and 0.3 to 3 µM in test [2].
As for `Cc1noc(C)c1-c1c[nH]c(=O)c(NCc2nccs2)c1` [Example 30, 5-(3,5-dimethylisoxazol-4-yl)-3-((thiazol-2-ylmethyl)amino)pyridin-2(1H)-one], the IC50 is 3 to 30 µM in test [1], 0.3 to 3 µM in the test on hIL-6 mRNA, 0.3 to 3 µM with Human AML MV-4-11 cells and no more than 0.3 µM in test [2].
Take `Cc1noc(C)c1-c1c[nH]c(=O)c(NCCc2ccccc2)c1` [Example 22, 5-(3,5-dimethylisoxazol-4-yl)-3-(phenethylamino)pyridin-2(1H)-one]: the IC50 in test [2] was 0.3 to 3 µM.
On to `Cc1noc(C)c1-c1c[nH]c(=O)c(NCc2ccc(Cl)cc2)c1` [Example 8, 3-((4-chlorobenzyl)amino)-5-(3,5-dimethylisoxazol-4-yl)pyridin-2(1H)-one], for which the IC50 in test [1] was 3 to 30 µM; in the test with hIL-6 mRNA it was 0.3 to 3 µM; in the test with Human AML MV-4-11 cells, 3 to 30 µM; in test [2], no more than 0.3 µM.
Consider `Cc1noc(C)c1-c1c[nH]c(=O)c(NCc2cccc3ncccc23)c1` [Example 39, 5-(3,5-dimethylisoxazol-4-yl)-3-((quinolin-5-ylmethyl)amino)pyridin-2(1H)-one], for which the IC50 in test [1] was 0.3 to 3 µM; in the test with hIL-6 mRNA, no more than 0.3 µM; with Human AML MV-4-11 cells, 0.3 to 3 µM; in test [2] it was no more than 0.3 µM.
In the case of `Cc1noc(C)c1-c1c[nH]c(=O)c(Nc2ccccc2F)c1` [Example 15, 5-(3,5-dimethylisoxazol-4-yl)-3-((2-fluorophenyl)amino)pyridin-2(1H)-one], the IC50 in test [2] fell in the range of 0.3 to 3 µM.
On to `Cc1noc(C)c1Nc1cc(-c2c(C)noc2C)c[nH]c1=O` [Example 34, 5-(3,5-dimethylisoxazol-4-yl)-3-((3,5-dimethylisoxazol-4-yl)amino)pyridin-2(1H)-one], for which the IC50 in test [1] was 0.3 to 3 µM; in the test with hIL-6 mRNA it was 0.3 to 3 µM; in the test on Human AML MV-4-11 cells, 0.3 to 3 µM; in test [2], no more than 0.3 µM.
With `Cc1noc(C)c1-c1c[nH]c(=O)c(-c2c(C)noc2C)c1` [Example 32, 3,5-bis(3,5-dimethylisoxazol-4-yl)pyridin-2(1H)-one], in test [2], the IC50 was in the range of 3 to 30 µM.
On the same count and under the same terms, for `Cc1noc(C)c1-c1c[nH]c(=O)c(Nc2ccc(C#N)cc2)c1` [Example 28, 4-((5-(3,5-dimethylisoxazol-4-yl)-2-oxo-1,2-dihydropyridin-3-yl)amino)benzonitrile] the value was 0.3 to 3 µM.
In the case of `COc1cccc(Nc2cc(-c3c(C)noc3C)c[nH]c2=O)c1` [Example 7, 5-(3,5-dimethylisoxazol-4-yl)-3-((3-methoxyphenyl)amino)pyridin-2(1H)-one], the figures for the IC50 (in the test with Human AML MV-4-11 cells; in test [2]) were 3 to 30 µM and 0.3 to 3 µM, respectively.
`Cc1noc(C)c1-c1c[nH]c(=O)c(NCc2nc3ccccc3[nH]2)c1` [Example 38, 3-(((1H-benzo[d]imidazol-2-yl)methyl)amino)-5-(3,5-dimethylisoxazol-4-yl)pyridin-2(1H)-one]: the IC50 in test [2] was 0.3 to 3 µM.
As for `Cc1noc(C)c1-c1c[nH]c(=O)c(OCc2ccc(C#N)cc2)c1` [Example 25, 4-(((5-(3,5-dimethylisoxazol-4-yl)-2-oxo-1,2-dihydropyridin-3-yl)oxy)methyl)benzonitrile], in test [2], the IC50 fell in the range of 0.3 to 3 µM.
`Cc1noc(C)c1-c1c[nH]c(=O)c(NC(C)c2ccc(Cl)cc2)c1` (centres unmarked) [Example 18, 3-((1-(4-chlorophenyl)ethyl)amino)-5-(3,5-dimethylisoxazol-4-yl)pyridin-2(1H)-one]: the results for the IC50 (in test [1]; in the test with Human AML MV-4-11 cells; in test [2]) were 0.3 to 3 µM, 3 to 30 µM and 0.3 to 3 µM, respectively.
Regarding `Cc1noc(C)c1-c1c[nH]c(=O)c(Oc2ccccc2)c1` [Example 5, 5-(3,5-dimethylisoxazol-4-yl)-3-phenoxypyridin-2(1H)-one], the IC50 in test [2] lay within 0.3 to 3 µM.
For the molecule `Cc1noc(C)c1-c1c[nH]c(=O)c(Nc2ccc(Cl)cc2)c1` [Example 29, 3-((4-chlorophenyl)amino)-5-(3,5-dimethylisoxazol-4-yl)pyridin-2(1H)-one], the IC50 lay within 3 to 30 µM in test [1], 3 to 30 µM in the test on Human AML MV-4-11 cells and 0.3 to 3 µM in test [2].
In the case of `Cc1noc(C)c1-c1c[nH]c(=O)c(NCc2ccc(Br)cc2)c1` [Example 19, 3-((4-bromobenzyl)amino)-5-(3,5-dimethylisoxazol-4-yl)pyridin-2(1H)-one], the IC50 in test [1] fell in the range of 3 to 30 µM; in the test with Human AML MV-4-11 cells, 3 to 30 µM; in test [2], 0.3 to 3 µM.
In the case of `Cc1noc(C)c1-c1c[nH]c(=O)c(OCc2ccccn2)c1` [Example 26, 5-(3,5-dimethylisoxazol-4-yl)-3-(pyridin-2-ylmethoxy)pyridin-2(1H)-one], the IC50 in test [2] lay in the range of 0.3 to 3 µM.
As for `Cc1cccc(Nc2cc(-c3c(C)noc3C)c[nH]c2=O)c1` [Example 6, 5-(3,5-dimethylisoxazol-4-yl)-3-(m-tolylamino)pyridin-2(1H)-one], the values for the IC50 (in the test with hIL-6 mRNA; with Human AML MV-4-11 cells; in test [2]) were 0.3 to 3 µM, 0.3 to 3 µM and no more than 0.3 µM, respectively.
Consider `Cc1noc(C)c1-c1c[nH]c(=O)c(NCc2cnoc2)c1` [Example 31, 5-(3,5-dimethylisoxazol-4-yl)-3-((isoxazol-4-ylmethyl)amino)pyridin-2(1H)-one], for which the IC50 in test [2] fell in the range of 0.3 to 3 µM.
Take `Cc1noc(C)c1-c1c[nH]c(=O)c(NCc2cccnc2)c1` [Example 23, 5-(3,5-dimethylisoxazol-4-yl)-3-((pyridin-3-ylmethyl)amino)pyridin-2(1H)-one]: the IC50 in test [1] was 0.3 to 3 µM; with hIL-6 mRNA, 0.3 to 3 µM; in test [2], no more than 0.3 µM.
In the case of `Cc1noc(C)c1-c1c[nH]c(=O)c(Nc2ccc(F)cc2)c1` [Example 16, 5-(3,5-dimethylisoxazol-4-yl)-3-((4-fluorophenyl)amino)pyridin-2(1H)-one], in test [2], the IC50 fell in the range of 0.3 to 3 µM.
With `Cc1noc(C)c1-c1c[nH]c(=O)c(NCc2ccc(Cl)s2)c1` [Example 12, 3-(((5-chlorothiophen-2-yl)methyl)amino)-5-(3,5-dimethylisoxazol-4-yl)pyridin-2(1H)-one], the figures for the IC50 (in the test with hIL-6 mRNA; with Human AML MV-4-11 cells; in test [2]) were 0.3 to 3 µM, 0.3 to 3 µM and no more than 0.3 µM, respectively.
